According to BindingDB's records for doi:10.1021/cb500956g (University of North Carolina At Chapel Hill, 2015):

How the values were obtained:
Experiment in all cases: AlphaScreen Assay
Details in all cases: pH 8
[1] = biological target: T1, E3 ubiquitin-protein ligase UHRF1 (Homo sapiens, UniProt Q96T88)
T1 sequence (Q96T88 whole entry): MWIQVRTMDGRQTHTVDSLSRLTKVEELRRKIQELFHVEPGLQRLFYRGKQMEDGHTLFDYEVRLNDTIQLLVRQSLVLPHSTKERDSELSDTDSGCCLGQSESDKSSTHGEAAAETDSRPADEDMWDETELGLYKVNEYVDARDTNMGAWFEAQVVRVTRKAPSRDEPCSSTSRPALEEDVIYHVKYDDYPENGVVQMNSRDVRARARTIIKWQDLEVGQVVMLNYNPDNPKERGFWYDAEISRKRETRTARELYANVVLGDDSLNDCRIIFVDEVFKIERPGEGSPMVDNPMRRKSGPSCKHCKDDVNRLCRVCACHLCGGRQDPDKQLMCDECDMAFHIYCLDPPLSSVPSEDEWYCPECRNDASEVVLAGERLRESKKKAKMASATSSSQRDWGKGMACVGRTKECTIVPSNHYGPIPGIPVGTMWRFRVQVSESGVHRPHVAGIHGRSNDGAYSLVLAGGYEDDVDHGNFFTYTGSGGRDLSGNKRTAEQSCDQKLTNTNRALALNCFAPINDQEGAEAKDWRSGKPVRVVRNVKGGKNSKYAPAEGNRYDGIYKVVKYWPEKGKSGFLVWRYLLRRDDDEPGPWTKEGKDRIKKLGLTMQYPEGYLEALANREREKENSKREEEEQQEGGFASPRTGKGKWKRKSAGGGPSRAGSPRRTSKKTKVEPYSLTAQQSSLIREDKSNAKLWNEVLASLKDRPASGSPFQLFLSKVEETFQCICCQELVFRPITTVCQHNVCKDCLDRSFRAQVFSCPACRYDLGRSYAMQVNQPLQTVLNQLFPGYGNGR
Protocol: (§1) In brief, compound plates (1 μL at 10 mM highest concentration; 3-fold, 10-point dilutions in DMSO) were diluted in 1X assay buffer (20 mM TRIS pH 8.0, 25 mM NaCl, 2 mM DTT and 0.05% Tween-20) to 1 mM using a Multimek robotic pipettor (Nanoscreen), and 1 μL was spotted into the wells of 384-well low-volume Proxiplates (PerkinElmer). To these plates was added 9 μL of protein−peptide mix in a 1X assay buffer by Multidrop (Thermo) to bring the final compound concentration to 100 μM, and this was incubated for 30 min at RT. Next, 2 μL of a 1:1 mixture of streptavidin-conjugate donor and nickel-chelate acceptor beads (45μg/mL in 1X assay buffer) were added, and the plates were allowed to incubate for an additional 30 min in the dark at RT. After incubation, the plates were read on an EnVision multilabel reader equipped with an HTS AlphaScreen laser (PerkinElmer).

PHD finger protein 19 = PHD finger protein 19 (Homo sapiens, UniProt Q5T6S3)
Protocol: as §1

PHD finger protein 1 = biological target: T2, PHD finger protein 1 (Homo sapiens, UniProt O43189)
T2 sequence (O43189 whole entry): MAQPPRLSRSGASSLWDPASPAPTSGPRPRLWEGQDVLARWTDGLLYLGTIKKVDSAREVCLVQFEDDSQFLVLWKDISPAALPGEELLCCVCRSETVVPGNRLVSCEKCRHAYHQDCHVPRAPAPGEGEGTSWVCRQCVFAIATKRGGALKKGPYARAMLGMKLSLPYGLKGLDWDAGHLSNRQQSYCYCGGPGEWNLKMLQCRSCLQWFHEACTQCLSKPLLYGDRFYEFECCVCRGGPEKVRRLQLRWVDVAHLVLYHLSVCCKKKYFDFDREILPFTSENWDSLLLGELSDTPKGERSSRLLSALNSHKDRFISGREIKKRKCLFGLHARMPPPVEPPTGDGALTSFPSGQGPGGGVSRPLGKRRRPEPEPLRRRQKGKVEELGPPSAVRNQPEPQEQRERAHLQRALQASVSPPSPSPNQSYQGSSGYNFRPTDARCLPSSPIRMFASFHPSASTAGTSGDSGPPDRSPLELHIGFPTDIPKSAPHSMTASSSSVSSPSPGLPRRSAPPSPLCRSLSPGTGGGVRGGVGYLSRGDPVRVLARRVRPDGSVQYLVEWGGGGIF
Protocol: as §1

TP53-binding protein 1 = TP53-binding protein 1 (Homo sapiens, UniProt Q12888)
Sequence of TP53-binding protein 1 (Q12888 whole entry): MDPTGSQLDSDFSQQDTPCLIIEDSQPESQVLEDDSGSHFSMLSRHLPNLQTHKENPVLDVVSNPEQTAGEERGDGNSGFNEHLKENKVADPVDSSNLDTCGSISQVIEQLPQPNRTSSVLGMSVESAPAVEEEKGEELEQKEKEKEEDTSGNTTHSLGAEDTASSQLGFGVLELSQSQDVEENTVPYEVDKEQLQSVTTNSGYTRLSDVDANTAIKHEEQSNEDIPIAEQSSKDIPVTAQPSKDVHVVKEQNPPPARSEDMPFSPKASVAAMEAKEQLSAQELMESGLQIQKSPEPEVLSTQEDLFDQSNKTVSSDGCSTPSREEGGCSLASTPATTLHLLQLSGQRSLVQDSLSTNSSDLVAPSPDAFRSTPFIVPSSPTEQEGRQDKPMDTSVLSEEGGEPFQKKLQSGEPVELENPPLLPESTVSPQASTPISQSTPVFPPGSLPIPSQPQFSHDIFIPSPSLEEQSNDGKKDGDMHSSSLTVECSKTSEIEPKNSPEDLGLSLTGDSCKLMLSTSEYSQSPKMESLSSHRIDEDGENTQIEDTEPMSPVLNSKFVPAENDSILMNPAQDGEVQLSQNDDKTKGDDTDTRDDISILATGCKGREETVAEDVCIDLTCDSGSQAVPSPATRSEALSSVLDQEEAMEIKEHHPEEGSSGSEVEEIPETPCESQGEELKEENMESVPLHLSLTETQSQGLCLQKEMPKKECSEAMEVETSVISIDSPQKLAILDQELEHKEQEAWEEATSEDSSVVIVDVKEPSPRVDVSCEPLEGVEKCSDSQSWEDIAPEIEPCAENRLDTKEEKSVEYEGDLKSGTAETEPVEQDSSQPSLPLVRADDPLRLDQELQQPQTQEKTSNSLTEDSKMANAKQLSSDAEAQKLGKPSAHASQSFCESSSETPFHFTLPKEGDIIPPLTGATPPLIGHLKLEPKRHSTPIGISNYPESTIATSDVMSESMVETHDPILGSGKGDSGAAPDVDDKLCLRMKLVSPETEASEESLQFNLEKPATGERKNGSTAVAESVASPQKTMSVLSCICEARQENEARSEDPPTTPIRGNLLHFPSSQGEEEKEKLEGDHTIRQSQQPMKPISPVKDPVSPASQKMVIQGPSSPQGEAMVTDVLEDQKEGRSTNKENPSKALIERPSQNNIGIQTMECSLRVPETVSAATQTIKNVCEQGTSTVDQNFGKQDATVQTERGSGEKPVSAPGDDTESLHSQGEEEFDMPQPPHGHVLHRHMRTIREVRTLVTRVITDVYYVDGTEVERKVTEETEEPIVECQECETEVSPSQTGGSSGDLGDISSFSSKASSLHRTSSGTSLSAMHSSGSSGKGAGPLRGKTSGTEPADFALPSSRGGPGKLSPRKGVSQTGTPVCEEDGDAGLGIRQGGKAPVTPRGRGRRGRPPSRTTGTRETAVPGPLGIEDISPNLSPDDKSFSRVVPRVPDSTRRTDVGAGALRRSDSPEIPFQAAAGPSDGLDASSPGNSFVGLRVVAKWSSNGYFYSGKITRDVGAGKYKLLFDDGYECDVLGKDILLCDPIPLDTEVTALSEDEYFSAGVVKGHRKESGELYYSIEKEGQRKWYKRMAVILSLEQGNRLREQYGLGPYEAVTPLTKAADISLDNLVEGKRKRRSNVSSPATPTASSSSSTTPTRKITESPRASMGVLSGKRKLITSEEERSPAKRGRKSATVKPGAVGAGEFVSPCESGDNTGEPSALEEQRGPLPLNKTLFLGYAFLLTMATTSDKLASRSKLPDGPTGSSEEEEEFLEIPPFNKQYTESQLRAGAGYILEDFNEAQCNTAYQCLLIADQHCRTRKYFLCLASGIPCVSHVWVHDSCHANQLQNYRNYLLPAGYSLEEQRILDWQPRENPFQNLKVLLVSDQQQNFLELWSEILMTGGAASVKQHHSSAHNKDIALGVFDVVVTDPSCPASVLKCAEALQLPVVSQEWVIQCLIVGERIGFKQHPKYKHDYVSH
Protocol: as §1

[2] = biological target: T3, Lethal(3)malignant brain tumor-like protein 3 (Homo sapiens, UniProt Q96JM7)
T3 sequence (Q96JM7 whole entry): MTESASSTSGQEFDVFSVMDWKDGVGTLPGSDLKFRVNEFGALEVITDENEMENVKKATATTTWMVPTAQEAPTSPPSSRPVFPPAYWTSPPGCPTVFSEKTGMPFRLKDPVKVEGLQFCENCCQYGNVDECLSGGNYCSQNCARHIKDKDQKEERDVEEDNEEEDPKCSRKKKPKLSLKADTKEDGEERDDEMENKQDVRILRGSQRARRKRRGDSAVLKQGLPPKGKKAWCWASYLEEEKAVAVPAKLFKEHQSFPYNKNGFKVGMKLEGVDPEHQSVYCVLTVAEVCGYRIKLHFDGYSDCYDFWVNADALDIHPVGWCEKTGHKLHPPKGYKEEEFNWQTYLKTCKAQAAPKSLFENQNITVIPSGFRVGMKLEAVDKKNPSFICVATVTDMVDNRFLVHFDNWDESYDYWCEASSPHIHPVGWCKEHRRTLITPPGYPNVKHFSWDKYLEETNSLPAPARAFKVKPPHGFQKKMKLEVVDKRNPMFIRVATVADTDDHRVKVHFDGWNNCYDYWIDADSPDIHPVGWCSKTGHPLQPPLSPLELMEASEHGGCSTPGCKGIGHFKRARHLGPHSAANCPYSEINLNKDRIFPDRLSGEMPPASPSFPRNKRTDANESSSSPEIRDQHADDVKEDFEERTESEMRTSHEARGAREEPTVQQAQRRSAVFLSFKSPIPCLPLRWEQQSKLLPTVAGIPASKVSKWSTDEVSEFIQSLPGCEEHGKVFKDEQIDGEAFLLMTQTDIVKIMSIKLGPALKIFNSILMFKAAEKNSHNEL
Protocol: as §1

[3] = biological target: MBT domain-containing protein 1 (Homo sapiens, UniProt Q05BQ5)
Sequence of MBT domain-containing protein 1 (Q05BQ5 whole entry, the tested form may be a part): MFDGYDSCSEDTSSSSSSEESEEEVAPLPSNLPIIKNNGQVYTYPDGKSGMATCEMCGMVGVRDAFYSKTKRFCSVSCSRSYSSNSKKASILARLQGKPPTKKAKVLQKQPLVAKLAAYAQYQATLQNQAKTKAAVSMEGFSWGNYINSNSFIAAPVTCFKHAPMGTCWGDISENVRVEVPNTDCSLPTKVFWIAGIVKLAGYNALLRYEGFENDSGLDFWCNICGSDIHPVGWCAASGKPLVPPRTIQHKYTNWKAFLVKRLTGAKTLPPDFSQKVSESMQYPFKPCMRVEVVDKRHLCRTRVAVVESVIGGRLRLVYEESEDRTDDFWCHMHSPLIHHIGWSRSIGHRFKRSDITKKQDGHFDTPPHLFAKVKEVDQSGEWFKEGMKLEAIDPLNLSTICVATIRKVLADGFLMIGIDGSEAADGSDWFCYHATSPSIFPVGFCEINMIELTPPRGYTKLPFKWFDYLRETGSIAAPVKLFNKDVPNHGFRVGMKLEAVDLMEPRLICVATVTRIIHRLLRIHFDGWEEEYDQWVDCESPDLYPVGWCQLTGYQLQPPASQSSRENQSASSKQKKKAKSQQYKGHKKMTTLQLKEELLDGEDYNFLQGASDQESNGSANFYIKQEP
Protocol: as §1

[4] = biological target: Lysine-specific demethylase 5A (Homo sapiens, UniProt P29375)
Sequence of Lysine-specific demethylase 5A (P29375 whole entry): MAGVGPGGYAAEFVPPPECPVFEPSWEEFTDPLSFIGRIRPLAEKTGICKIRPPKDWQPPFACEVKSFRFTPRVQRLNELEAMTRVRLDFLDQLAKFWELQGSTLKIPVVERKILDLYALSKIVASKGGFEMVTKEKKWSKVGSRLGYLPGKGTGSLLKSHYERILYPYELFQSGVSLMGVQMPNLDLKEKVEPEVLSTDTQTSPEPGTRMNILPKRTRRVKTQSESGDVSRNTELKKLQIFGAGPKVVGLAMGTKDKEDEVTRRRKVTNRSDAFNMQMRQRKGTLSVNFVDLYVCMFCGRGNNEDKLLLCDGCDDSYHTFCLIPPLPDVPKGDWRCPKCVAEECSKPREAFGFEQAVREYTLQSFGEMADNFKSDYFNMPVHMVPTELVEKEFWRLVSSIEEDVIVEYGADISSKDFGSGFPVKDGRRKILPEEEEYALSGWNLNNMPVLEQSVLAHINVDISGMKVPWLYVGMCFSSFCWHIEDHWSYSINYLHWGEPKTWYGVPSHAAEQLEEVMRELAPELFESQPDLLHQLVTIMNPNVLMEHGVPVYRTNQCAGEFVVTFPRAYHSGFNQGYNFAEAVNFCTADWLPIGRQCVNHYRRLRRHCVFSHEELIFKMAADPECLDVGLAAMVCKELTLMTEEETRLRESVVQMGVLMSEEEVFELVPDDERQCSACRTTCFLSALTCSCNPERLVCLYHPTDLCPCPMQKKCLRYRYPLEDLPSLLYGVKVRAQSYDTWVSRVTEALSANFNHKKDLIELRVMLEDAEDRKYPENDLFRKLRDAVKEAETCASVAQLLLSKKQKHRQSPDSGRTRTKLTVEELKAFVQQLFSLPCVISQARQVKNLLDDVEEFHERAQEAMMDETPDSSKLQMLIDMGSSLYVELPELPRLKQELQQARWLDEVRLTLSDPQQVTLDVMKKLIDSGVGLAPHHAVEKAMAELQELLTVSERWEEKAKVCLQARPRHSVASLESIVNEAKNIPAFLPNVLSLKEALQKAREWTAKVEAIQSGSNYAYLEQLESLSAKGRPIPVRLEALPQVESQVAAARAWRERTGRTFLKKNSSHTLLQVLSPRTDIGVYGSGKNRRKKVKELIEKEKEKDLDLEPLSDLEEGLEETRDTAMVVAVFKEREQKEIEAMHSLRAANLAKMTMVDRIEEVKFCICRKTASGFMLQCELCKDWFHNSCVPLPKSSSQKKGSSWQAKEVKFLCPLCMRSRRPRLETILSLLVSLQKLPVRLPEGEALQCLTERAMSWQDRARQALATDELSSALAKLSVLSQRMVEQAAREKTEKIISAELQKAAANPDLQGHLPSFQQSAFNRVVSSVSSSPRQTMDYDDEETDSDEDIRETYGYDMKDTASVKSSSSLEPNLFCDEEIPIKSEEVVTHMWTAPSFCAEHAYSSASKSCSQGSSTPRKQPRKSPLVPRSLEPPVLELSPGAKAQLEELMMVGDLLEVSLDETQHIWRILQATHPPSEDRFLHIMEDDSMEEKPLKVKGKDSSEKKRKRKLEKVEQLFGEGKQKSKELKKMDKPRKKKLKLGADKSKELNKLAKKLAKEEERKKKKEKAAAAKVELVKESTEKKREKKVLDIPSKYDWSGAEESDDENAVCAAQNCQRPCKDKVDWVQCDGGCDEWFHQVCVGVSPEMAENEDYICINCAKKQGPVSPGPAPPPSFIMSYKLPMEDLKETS
Protocol: as §1

Measured: IC50

CC(C)(C)NCCCNC(=O)c1ccc(Br)cc1 [4-Bromo-N-(3-(tert-butylamino)propyl)benzamide (15)]
> 100 µM: [1] | PHD finger protein 19 | PHD finger protein 1 | TP53-binding protein 1 | [2] | [3] | [4]

CC(C)(C)NCCCNC(=O)c1cc(Br)ccn1 [4-Bromo-N-(3-(tert-butylamino)propyl)picolinamide (24)]
> 100 µM: [1] | PHD finger protein 19 | PHD finger protein 1 | TP53-binding protein 1 | [2] | [3] | [4]

CC(C)(C)NCCCCNC(=O)c1cccc(Br)c1 [3-Bromo-N-(4-(tert-butylamino)butyl)benzamide (11)]
> 100 µM: [1] | PHD finger protein 19 | PHD finger protein 1 | TP53-binding protein 1 | [2] | [3] | [4]

CC(C)(C)NCCCNC(=O)c1ccccc1Br [2-Bromo-N-(3-(tert-butylamino)propyl)benzamide (16)]
> 100 µM: [1] | PHD finger protein 19 | PHD finger protein 1 | TP53-binding protein 1 | [2] | [3] | [4]

CC(C)(C)NCCCCCNC(=O)c1cccc(Br)c1 [3-Bromo-N-(5-(tert-butylamino)pentyl)benzamide (12)]
> 100 µM: [1] | PHD finger protein 19 | PHD finger protein 1 | TP53-binding protein 1 | [2] | [3] | [4]

CC(C)(C)N1CCN(C(=O)c2cccc(Br)c2)CC1 [(3-Bromophenyl)(4-(tert-butyl)piperazin-1-yl)methanone (10)]
> 100 µM: [1] | PHD finger protein 19 | PHD finger protein 1 | TP53-binding protein 1 | [2] | [3] | [4]

CC(C)(C)NCCCNC(=O)c1cc(C(F)(F)F)ccn1 [N-(3-(Tert-butylamino)propyl)-4-(trifluoromethyl)picolinamide (25)]
> 100 µM: [1] | PHD finger protein 19 | PHD finger protein 1 | TP53-binding protein 1 | [2] | [3] | [4]
